Earlier results on two compounds are cited in patent US20100143471A1, “NOVEL REDUCED DOSE PHARMACEUTICAL COMPOSITIONS OF FE[…] PSEUDOEPHEDRINE” (LUPIN LIMITED, priority 2007, published 2010).

Structures can show the parent of a compound that is named as a salt.

This data set relates to seasonal allergic rhinitis symptoms. The following applies: children aged 6-11 years.

With `CC(C)(C(=O)O)c1ccc(C(O)CCCN2CCC(C(O)(c3ccccc3)c3ccccc3)CC2)cc1` (centres unmarked) [fexofenadine], under “doses of up to 60 mg bid”, the safety and sedation entry was “safe and nonsedating”. Regarding `CC(C)(C(=O)O)c1ccc(C(O)CCCN2CCC(C(O)(c3ccccc3)c3ccccc3)CC2)cc1` (centres unmarked) [fexofenadine HCl], the “reduction of seasonal allergic rhinitis symptoms” value (30 mg bid) is “effectively reduces all seasonal allergic rhinitis symptoms”.
